Data from paper PMC8123576 (International Journal of Molecular Sciences, 2021).

Key:
[1] = test system: A. flavus; assay: microbe, parasite or virus in culture; format: cell-based, Aspergillus flavus
[2] = test system: aflatoxin accumulation by A. flavus; assay: microbe, parasite or virus in culture; format: cell-based, Aspergillus flavus
[3] = Aspergillus flavus, 100 µM, read-out: G.I. (%) (A. flavus growth inhibition)
[4] = Aspergillus flavus, read-out: A.I. (%) (aflatoxin accumulation inhibition)

| Compound | G.I. (%) (A. flavus growth inhibition) ([1]; 100 µM) | A.I. (%) (aflatoxin accumulation inhibition) ([2]; 50 µM) | A.I. (%) (aflatoxin accumulation inhibition) ([2]; 100 µM) | G.I. (%) (A. flavus growth inhibition) ([1]; 50 µM) | other results |
| --- | --- | --- | --- | --- | --- |
| Cu(II) Quinolinecarboxaldehyde bisthiosemicarbazonate | 60,7% | 55,7% | 88,0 | – | – |
| Ni(II) Cuminaldehyde bisthiosemicarbazonate | 90,0% | 91,5% | 96,0% | 84,0% | – |
| NC(=S)NN=C1CCCCC1 [Cyclohexanone thiosemicarbazone] | 95,0% | – | – | 80,0% | – |
| CC12CCC(C(=NNC(N)=S)C1=NNC(N)=S)C2(C)C (stereo not shown) [Camphorquinone bis thiosemicarbazone] | 58,0% | – | – | – | – |
| CC(=O)c1ccco1 [2-acetyl-furan] | – | – | – | – | activity of parent compounds on aflatoxin biosynthesis [2]: fundamentally inactive |
| Cu(II) 1‐isopropylbenzaldehyde bisthiosemicarbazonate | – | – | 73,5% | – | – |
| Ni(II) perillaldehyde bisthiosemicarbazonate | – | 85,2% | 90,1% | – | – |
| CCCCCCCCCC=NNC(N)=S [Decanal thiosemicarbazone] | 96,0% | – | 62,0% | 96,0% | – |
| Dicyclohexanone thiosemicarbazone | 99,00% | – | – | 90,0% | – |
| Cu(II) cinnamaldehyde bisthiosemicarbazonate | – | – | – | 58,0% | – |
| Cu(II) 2‐isopropyl benzaldehyde‐2‐methyl‐thiosemicarbazone di acetate | 95% | 71,4% | 86,7% | 90,0% | – |
| CC(C)c1cccc(C=NN(C)C(N)=S)c1 [3‐isopropyl benzaldehyde‐2‐methyl‐thiosemicarbazone] | 70,6% | – | 62,7% | – | – |
| NC(=S)NN=Cc1cccc(O)c1O [2,3‐dihydroxybenzaldehyde thiosemicarbazone] | – | – | – | 53,0% | – |
| NC(=S)NN=CCCc1ccccc1 [3‐Phenylpropanal thiosemicarbazone] | 107,0% | – | – | 100% | – |
| Cu(II) 3,4‐dimethoxybenzaldehyde bis 4,4'‐dimethyl thiosemicarbazonate | – | 61,4% | 84,6% | – | – |
| CC(C)c1ccccc1C=NNC(N)=S [2‐isopropylbenzaldehyde thiosemicarbazone] | – | 67,0% | 97,0% | – | – |
| CC(C)=CCC/C(C)=C/C=N/NC(N)=S [Citral thiosemicarbazone] | 57,0% | – | – | – | – |
| O=C1c2ccccc2C(=O)c2cc(CO)ccc21 [2‐hydroxymethyl‐anthraquinone] | 62,0% | – | – | – | – |
| Cu(II) 4,7'‐dihydroxyflavone bisthiosemicarbazonate | 100% | – | – | 100% | – |

| Compound | G.I. (%) (A. flavus growth inhibition) ([1]; 100 µM) | A.I. (%) (aflatoxin accumulation inhibition) ([2]; 50 µM) | A.I. (%) (aflatoxin accumulation inhibition) ([2]; 100 µM) | G.I. (%) (A. flavus growth inhibition) ([1]; 50 µM) | other results |
| --- | --- | --- | --- | --- | --- |
| NC(=S)NN=c1cc(-c2ccccc2)oc2ccccc12 [Flavone thiosemicarbazone] | 100% | – | – | 100% | – |
| Cu(II) heptanal bisthiosemicarbazonate | – | 62,8% | 85,5% | – | – |
| Cu(II) syringaldehyde bisthiosemicarbazonate | 61,0% | – | 61,0% | – | – |
| CN(C)C(=S)NN=CC=Cc1ccccc1.CN(C)C(=S)NN=CC=Cc1ccccc1.[Zn+2] [Zn(II) Cinnamaldehyde bis 4,4‐dimethyl thiosemicarbazonate] | – | 75,0% | 100% | – | – |
| Zn(II) 1‐isopropylbenzaldehyde bisthiosemicarbazonate | – | 55,3% | 100% | – | – |
| Zn(II) 1‐isopropylbenzaldehyde bis thiosemicarbazone diacetate | – | 69,3% | 81,9% | – | – |
| Cu(II) 2,3,4‐trimethoxybenzaldehyde bisthiosemicarbazonate | – | – | – | 55,0% | – |
| Plumbagin thiosemicarbazone | 61,9% | – | 83,0% | – | – |
| Zn(II) Cinnamaldehyde bisthiosemicarbazonate | 76,0% | 99,0% | 100% | 56,0% | – |
| Cu(II) 1‐(3‐methoxyphenyl)heptan‐1‐one bisthiosemicarbazonate | – | 82,5% | 95,2% | – | – |
| Cu(II) fenchone bisthiosemicarbazonate | 57,0% | 62,0% | 84,0% | – | – |
| Cu(II)undecanal bisthiosemicarbazonate | 94,0% | 84,8% | 96,0% | 60,4% | – |
| Cu(II) apocynin bisthiosemicarbazonate | 72,0% | 52,0% | 72,0% | 61,0% | – |
| Cu(II) Camphorquinone bisthiosemicarbazonate | – | – | 53,0% | – | – |
| Cu(II) 2‐isopropylbenzaldehyde bisthiosemicarbazonate | – | 65,9% | 80,8% | – | – |
| Cu(II) nonanal bisthiosemicarbazonate | 84,1% | 90,0% | 100% | – | – |
| Cu(II) bisvanillin thiosemicarbazonate | 65,5% | 53,0% | 77,0% | – | – |
| Zn(II) 2‐isopropylbenzaldehyde bisthiosemicarbazonate | – | 93,8% | 100% | – | – |
| Cu(II) Dihydrojasmone bisthiosemicarbazonate | – | 66,0% | 80,0% | – | – |

| Compound | G.I. (%) (A. flavus growth inhibition) ([1]; 100 µM) | A.I. (%) (aflatoxin accumulation inhibition) ([2]; 50 µM) | A.I. (%) (aflatoxin accumulation inhibition) ([2]; 100 µM) | G.I. (%) (A. flavus growth inhibition) ([1]; 50 µM) | other results |
| --- | --- | --- | --- | --- | --- |
| Ni(II) Cinnamaldehyde bisthiosemicarbazonate | 100% | 95,0% | 100% | 87,9% | – |
| Cu(II) 3‐phenylpropanal bisthiosemicarbazonate | 68,0% | – | – | 69,0% | – |
| Cu(II) benzaldehyde 4,4'‐dimethyl thiosemicarbazonate | – | – | 67,0% | – | – |
| CCCCCC1=C(C)CCC1=NNC(N)=S [Dihydrojasmone thiosemicarbazone] | – | 51,5% | 63,2% | – | – |
| CCC=CCC1=C(C)CCC1=NNC(N)=S [Jasmone thiosemicarbazone] | – | 88,0% | 90,0% | – | – |
| CCCCCCCCCCC=NNC(N)=S [Undecanal thiosemicarbazone] | 62,0% | 72,0% | 93,0% | 78,0% | – |
| Zn(II) Cuminaldehyde bisthiosemicarbazonate | 60,3% | 97,1% | 100% | 56,0% | – |
| Zn(II) (E)‐1‐(4‐methoxyphenyl)‐1‐pentene‐3‐one‐bis 3‐thiosemicarbazonate | 89,0% | – | – | 86,0% | – |
| Cu(II) jasmone bisthiosemicarbazonate | 74,3% | 78,0% | 97,0% | – | – |
| Cu(I) chloroaqua flavone thiosemicarbazone | 79,0% | – | – | 60,0% | – |
| NC(=S)N/N=C\C=C\c1ccccc1 [Cinnamaldehyde thiosemicarbazone] | – | – | – | – | inhibition at 100 µM [1, 3]: 56%; inhibition at 50 µM [2, 4]: 73.1%; inhibition at 100 µM [2, 4]: 79% |
| Acetylthiophene bisthiosemicarbazone | 65,0% | – | – | – | – |
| Cc1ccc(S(=O)(=O)OCc2ccc3c(c2)C(=O)c2ccccc2C3=O)cc1 [Tosylate ‐2‐methyleneanthraquinone] | 87,0% | – | – | 66,0% | – |
| Cu(II) 2,4‐decadienal bisthiosemicarbazonate | 80,0% | – | – | 91,0% | – |
| O=c1cc(-c2ccccc2)oc2ccccc12 [Flavone] | – | – | – | – | inhibition at 50 µM ([1]; Aspergillus flavus, 50 µM, read-out: G.I. (%) (A. flavus growth inhibition)): 66%; inhibition at 100 µM [1, 3]: 83% |
| CC(=O)c1cccs1 [2-acetyl-thiophene] | – | – | – | – | activity of parent compounds on aflatoxin biosynthesis [2]: fundamentally inactive |
| CCC(/C=C/c1ccc(OC)cc1)=NNC(N)=S [(E)‐1‐(4‐methoxyphenyl)‐1‐pentene‐3‐one‐3‐thiosemicarbazone] | 74,0% | – | – | 62,0% | – |
| CCCCCC=CC=NNC(N)=S [2‐Octenal thiosemicarbazone] | 96,0% | – | – | 93,0% | – |
| NC(=S)NN=C(c1ccccc1)c1ccccc1 [Benzophenone thiosemicarbazone] | – | – | – | – | inhibition at 100 µM [1, 3]: 53% |
